Laboratory results published in patent publication US11326138B2, “Cell culture device and methods of use thereof” (University of Kentucky Research Foundation, priority 2017, dated 2022).

Legend:
[1] = modelled value for rhodamine in 1.5% agarose hydrogel medium; cited from earlier work
[2] = Solute diffusion from microfluidic channels into agarose hydrogel (time-lapse fluorescence); type: physicochemical; details: solution pumped through channels at 25 μL/min; 1.5 wt % agarose
Method: To illustrate a dynamic solute exchange between the hydrogel and the fluid in the microchannels, a liquid suspension of 1.5 wt % agarose in DI water was pipetted into the open reservoir of the microfluidic device. After solidification of the agarose, water containing 1.0 wt % rhodamine was introduced into the inlet using a syringe pump at a constant volumetric flowrate of 25 μL/min. Time-lapse images were taken every 30 seconds using a TI-E Nikon microscope and the fluorescent intensity was measured in the resulting images using NIS-Elements software in order to track the rhodamine diffusion from the channels into the agarose hydrogel.
Water containing 1.0 wt % rhodamine (0.48 kDa) was introduced into the microfluidic channels at a flowrate of 25 μL/min. […] Florescent intensity at two points—one directly beneath a PDMS wall and another centred beneath a microfluidic channel—was tracked over time.

[3] = Incubation of a PDMS surface in contact with rhodamine solution; type: physicochemical; details: 1.5 wt % solution of rhodamine, over 180 seconds

diffusion from microchannels into adjacent hydrogel [2]: diffused into the adjacent hydrogel
diffusion into PDMS [3]: no detectable diffusion
Substance: rhodamine
diffusion coefficient D [1]: 4×10^−6 cm^2/sec
